Measurements taken from patent US9975861B2, “Dual inhibitor compounds for use in the treatment of neurodegenerative disorders and alzheimer's disease” (FONDAZIONE ISTITUTO ITALIANO DI TECNOLOGIA, priority 2014, dated 2018).

Key:
[1] = test system: primary astrocytes and microglial cells; assay: Nitrites measurement (Griess reaction) in LPS-stimulated primary glial cells; assay type: cell-based, rat; details: for reduction of LPS-induced nitrite production: compounds 10 μM for 1 hour, then LPS 10 μg/mL for 24 hours, astrocytes and microglia, potency compared with 6-amino triazinones A-C (FIGS. 2A, 2B); for nitrite production in astrocyte cells: compounds 10 μM, LPS 10 μg/mL 24 hours, astrocyte cells (FIG. 2A)
Protocol: Astrocytes were prepared from neonatal (P2) rat cerebral cortex, as previously described by Luna-Medina et al. [Luna-Medina, R.; Cortes-Canteli, M.; Alonso, M.; Santos, A.; Martinez, A.; Perez-Castillo, A. Regulation of inflammatory response in neural cells in vitro by thiadiazolidinones derivatives through peroxisome proliferator-activated receptor gamma activation. J. Biol. Chem. 2005, 280, 21453-21462].
Briefly, after removal of the meninges, the cerebral cortex was dissected, dissociated, and incubated with 0.25% trypsin/EDTA at 37° C. for 1 hour. After centrifugation, the pellet was washed 3 times with Hank's balanced salt solution (HBSS) (Gibco) and the cells were placed on noncoated flasks and maintained in HAMS/Dulbecco's modified eagle's medium (DMEM) (1:1) medium containing 10% of fetal bovine serum (FBS). After 15 days, the flasks were agitated on an orbital shaker for 4 hours at 240 rpm at 37° C., the supernatant was collected, centrifuged, and the cellular pellet containing the microglial cells resuspended in complete medium (HAMS/DMEM (1:1) containing 10% FBS) and seeded on uncoated 96-well plates. Cells were allowed to adhere for 2 hours, and the medium was removed to eliminate nonadherent oligodendrocytes. New fresh medium containing 10 ng/mL of granulocyte-macrophage colony-stimulating factor (GM-CSF) was added. The remaining astroglial cells adhered on the flasks were then trypsinized, collected, centrifugated, and plated onto 96-well plates with complete medium. The purity of cultures obtained by this procedure was >98% as determined by immunofluorescence with the OX42 (microglial marker) and the glial fibrillary acidic protein (GFAP, astroglial marker) antibodies.
The potential anti-inflammatory activity of the selected compounds was tested by evaluating the production of nitrites from primary cultured glial cells. Primary cultures of astrocytes and microglia were incubated with the selected compounds (10 μM) for 1 hour, and then cells were cultured for another 24 hours with a potent inflammatory agent, such as lipopolysaccharide (LPS) (10 μg/mL). LPS is able to induce nitrite production and accumulation in the culture medium, which was assayed by the standard Griess reaction. Supernatants were collected from the media and mixed with an equal volume of Griess reagent (Sigma). Samples were then incubated at rt for 15 minutes and absorbance read using a plate reader at 492/540 nm.

[2] = test system: neurosphere cultures of primary rat neural stem cells; assay: Neurosphere cultures, immunocytochemistry for neural markers; assay type: cell-based; details: 10 μM during a week; compared to control (FIG. 3)
Text: Neurosphere (NS) cultures were derived from the hippocampus of adult rats and induced to proliferate using established passaging methods to achieve optimal cellular expansion according to published protocols [Ferron, S. R.; Andreu-Agullo, C.; Mira, H.; Sanchez, P.; Marques-Torrejon, M. A.; Farinas, I. A combined ex/in vivo assay to detect effects of exogenously added factors in neural stem cells. Nature Protoc. 2007, 2, 849-859]. Rats were decapitated, brains removed, and the hippocampus dissected as described [Morales-Garcia, J. A.; Luna-Medina, R.; Alfaro-Cervello, C.; Cortes-Canteli, M.; Santos, A.; Garcia-Verdugo, J. M.; Perez-Castillo, A. Peroxisome proliferator-activated receptor gamma ligands regulate neural stem cell proliferation and differentiation in vitro and in vivo. Glia 2011, 59, 293-307]. Briefly, cells were seeded into 12-well dishes and cultured in DMEM/F12 (1:1, Invitrogen) containing 10 ng/mL epidermal growth factor (EGF, Peprotech, London, UK), 10 ng/mL fibroblast growth factor (FGF, Peprotech), and B27 medium (Gibco). After 3 days in culture, NS were cultivated in the presence or absence of the indicated compounds (10 μM) during a week. After that, NS from 10-day old cultures were plated for 72 hours onto 100 μg/mL poly-L-lysine-coated coverslips in the absence of exogenous growth factors.
Neurogenesis is a crucial property for new AD-modifying drugs, since it confers the potential to increase endogenous regeneration as a repair mechanism in the damaged brain, and reduce neuronal loss and degeneration. Considering that GSK-3β inhibition is reported to regulate and increase neurogenesis [Lange, C.; Mix, E.; Frahm, J.; Glass, A.; Muller, J.; Schmitt, O.; Schmole, A. C.; Klemm, K.; Ortinau, S.; Hubner, R.; Frech, M. J.; Wree, A.; Rolfs, A. Small molecule GSK-3 inhibitors increase neurogenesis of human neural progenitor cells. Neurosci. […]

Structure (SMILES)	reduction of LPS-induced nitrite production [1]	nitrite production in astrocyte cells [1]	number of β-tubulin positive cells (immature neuronal marker) [2]	number of MAP-2 positive cells (mature neuronal marker) [2]
CCNC1=NC(c2ccc(F)cc2)NC(=O)N1 (racemic) [Example 3, 6-(ethylamino)-4-(4-fluorophenyl)-3,4-dihydro-1,3,5-triazin-2(1H)-one]	higher potency	restore nitrite production to basal level	significantly increased	–
CCCNC1=NC(c2ccc(F)cc2)NC(=O)N1 (stereo not drawn) [Example 6, 4-(4-fluorophenyl)-6-(propylamino)-3,4-dihydro-1,3,5-triazin-2(1H)-one]	higher potency	restore nitrite production to basal level	–	significantly amplified
